{"source": "patent US11395492B2", "about": "“Antimicrobial and agrochemical compositions” (Myco Sciences Limited, priority 2015, dated 2022)", "key": {"[1]": {"system": "spores of F. oxysporum", "experiment": "Sporicidal assay (1) with sodium nitrite, F. oxysporum", "format": "cell-based, Fusarium oxysporum f. sp. cubense"}, "[2]": {"system": "spores of B. cinerea", "experiment": "Sporicidal assay (1) with sodium nitrite, B. cinerea", "format": "cell-based, Botrytis cinerea"}, "[3]": {"system": "sclerotia of R. solani", "experiment": "Scleroticidal assay with compositions and sodium nitrite", "format": "cell-based, Rhizoctonia solani", "text": "Scleroticidal assay. Plugs of agar containing white immature sclerotia (3×3 millimeters) were cut from a 6 to 8 day culture of R. solani, whilst mature melanized (black) sclerotia (around 10×3 millimeters) were excised from 13-day old R. solani cultures and cut into 2×3 millimeter pieces with a scalpel. The sclerotia samples were then placed in the wells of a 96-well plate containing 75 microliters of various concentrations of sodium nitrite or sterile distilled water (DW) as control. TO start the reaction, 75 microliters of CuZn #31 (diluted in DW) was added to the wells. The plate was carefully shaken and incubated at room temperature for 10 minutes when the liquid was carefully removed and 150 microliters of CM-1 medium was added for 5 minutes to stop the reaction."}, "[4]": {"details": "NaNO2 1 mM + DW (sodium nitrite alone)"}, "[5]": {"details": "NaNO2 3 mM + DW (sodium nitrite alone)"}, "[6]": {"details": "NaNO2 10 mM + DW (sodium nitrite alone)"}, "[7]": {"details": "NaNO2 30 mM + DW (sodium nitrite alone)"}}, "note": "Several values for one entry are separate records, joined by “and”; a condition that tells them apart may be missing. Equal entries are not always repeated.", "data": [{"smiles": "O=NO", "note": "[NaNO2, sodium nitrite]", "values": [{"measurement": "sporicidal activity to F. oxysporum spores", "setting": "[1]; 100 millimolar sodium nitrite alone, data not shown", "value": "sporicidal"}, {"measurement": "Fungal growth score, spores of F. oxysporum", "setting": "[1]; [4]", "value": 2}, {"measurement": "Fungal growth score, spores of F. oxysporum", "setting": "[1]; [5]", "value": 2}, {"measurement": "Fungal growth score, spores of F. oxysporum", "setting": "[1]; [6]", "value": 2}, {"measurement": "Fungal growth score, spores of F. oxysporum", "setting": "[1]; [7]", "value": 2}, {"measurement": "Fungal growth score, spores of B. cinerea", "setting": "[2]; [4]", "value": 2}, {"measurement": "Fungal growth score, spores of B. cinerea", "setting": "[2]; [5]", "value": 2}, {"measurement": "Fungal growth score, spores of B. cinerea", "setting": "[2]; [6]", "value": 2}, {"measurement": "Fungal growth score, spores of B. cinerea", "setting": "[2]; [7]", "value": 2}, {"measurement": "Fungal growth score, spores of B. cinerea", "setting": "[2]; NaNO2 100 mM + DW (sodium nitrite alone)", "value": 2}, {"measurement": "Mean fungal growth (in mm ± SD, n = 2) of black sclerotia after treatment", "setting": "[3]; NaNO2 30 mM + 0 composition (sodium nitrite alone)", "value": "41 ± 2 mm and 43 ± 2 mm"}, {"measurement": "scleroticidal effect (words, FIG. 2)", "setting": "[3]; sodium nitrite alone (0+100), white or black sclerotia", "value": "little or no significant scleroticidal effect"}]}]}
